The results in this text go back to patent US11787850B2, “Peptidic TGF-beta antagonists” (priority 2015, dated 2023).

For this test, the system named is TGF-β1-induced PAI-1 protein production in A431 cells. Description: Western blot for PAI-1 in A431 cells. In kind it is cell-based. The conditions noted are these: for inhibition of TGF-β1-induced PAI-1 protein production, peptide treated with DMSO / inhibition of TGF-β1-induced PAI-1 protein production, peptide in Tris left untreated: 100 pM TGF-β1, 18 hours; for inhibition of TGF-β1-induced PAI-1 protein production, peptide treated with DMSO: 0.5% DMSO (FIG. 9); for inhibition of TGF-β1-induced PAI-1 protein production, peptide in Tris left untreated: no DMSO (FIG. 9). The method, then: FIG. 7 illustrates that the small molecular weight CD109-based peptide P16 (but not P11 or P16-1) inhibits TGF-β1-induced PAI-protein production. A431 cells were treated without (lane 1) or with 100 pM of TGF-β1 (lanes 2-6) in the absence (lane 2) or presence of 10 nM of P11 (11 aa peptide, lane 3), P16 (16 aa peptide, lane 4), P16-1 (scrambled peptide of 16 aa, lane 5) or Tris buffer (buffer, lane 6) for 24 hrs. Cell lysates were analyzed by Western blot for PAI-1 ([…]) protein levels and normalized to GAPDH protein levels (loading control). In the conditions tested, P16 (but not P11) inhibited TGF-β1-induced PAI-1 expression.
A431 cells were treated for 18 hours without (−) or with (+) 100 pM TGF-β1 in the presence or absence of Peptide X or P16. The peptides were previously dissolved in Tris buffer and left untreated or treated with DMSO prior to addition to the cells. Cell lysates were analyzed by Western blot for PAI-1 (plasminogen activator inhibitor-1) protein expression (top panel) and GAPDH served as a loading control (bottom panel). PAI-1 was not detected in untreated cells (lane 1).
A431 cells were grown in 6-well plates to 70-80% confluency and serum-starved overnight. Cells were washed with PBS and treated with or without TGF-β1 in presence or absence of various CD109-based peptides as indicated in the figure legends. Cells were solubilized with 500 μl of lysis buffer (50 mM Tris, pH 7.5, 150 mM NaCl, 50 mM NaF, 50 mM β-glycerophosphate, 1 mM sodium orthovanadate, 1 mM dithiothreitol, 5 mM EDTA, pH 8.0, 1% Nonidet P-40, 10% glycerol, 10 μM phenylmethylsulfonyl fluoride, 200 μg/ml bovine serum albumin, 1 μg/ml leupeptin, […] soybean trypsin inhibitor, 10 μg/ml benzamide, and 2 μg/ml pepstatin) for 30 min at 4° C. with mild agitation. Cell lysates were collected and centrifuged for 10 min at 10,000×g. The supernatants were collected and protein concentrations were determined using the Bio-Rad protein assay kit. Lysates containing equivalent protein concentrations were mixed with 0.2 volume of 5× electrophoresis sample buffer containing 5% β-mercaptoethanol and boiled for 5 min. Samples were resolved on 7.5% SDS-polyacrylamide gels and transferred to nitrocellulose membranes. Membranes were blocked for 3 h in blocking buffer (30 mM Tris, pH 7.5, 150 mM NaCl, and 0.05% (w/v) Tween 20™ (Tris-buffered saline/Tween) containing 5% (w/v) skim milk powder). The blot was incubated overnight at 4° C. with a 1:1000 dilution of anti-PAI-1 antibody (BD Biosciences). Blots were washed with Tris-buffered saline/Tween and incubated for 45 min at room temperature with a 1:5000 dilution of secondary antibody conjugated to horseradish peroxidase (Pierce). Chemiluminescence detection of the immune complexes was performed using the ECL system (Amersham Biosciences) according to the manufacturer's instructions. The membranes were stripped and reprobed with an anti-GAPDH antibody to confirm equal protein loading.
A431 cells were treated without (lane 1) or with 100 pM of TGF-β1 (lanes 2-6) in the absence (lane 2) or presence of 10 nM of P11 (11 aa peptide, lane 3), P16 (16 aa peptide, lane 4), P16-1 (scrambled peptide of 16 aa, lane 5) or Tris buffer (buffer, lane 6) for 24 hrs. Cell lysates were analyzed by Western blot for PAI-1 ([…]) protein levels and normalized to GAPDH protein levels (loading control).
A431 squamous cell carcinoma cells were treated for 18 hours without (−) or with (+) 100 pM TGF-β1 in the presence or absence of Peptide X or P16. The peptides were dissolved in Tris buffer and left untreated or treated with 0.5% DMSO prior to addition to the cells. Cell lysates were analyzed by Western blot for PAI-1 ([…]) protein expression (top panel) and GAPDH served as a loading control (bottom panel).

On to ETWIWLDTNMGSRIYQ [Peptide P16], for which the “inhibition of TGF-β1-induced PAI-1 protein production, peptide treated with DMSO” value is “did not enhance” and the “inhibition of TGF-β1-induced PAI-1 protein production, peptide in Tris left untreated” value is on record as “inhibited”. The “inhibition of TGF-β1-induced PAI-1 protein production” value (10 nM peptide, 100 pM TGF-β1, 24 hrs (FIG. 7)) is “inhibited”.
For “LGSSPHVRKHFPETWIWLDTNMGSRIYQEFEVTVPDSITS (Peptide X)”, the “inhibition of TGF-β1-induced PAI-1 protein production, peptide treated with DMSO” value is reported as “inhibited” and the “inhibition of TGF-β1-induced PAI-1 protein production, peptide in Tris left untreated” value was “did not”.
